In US12152046B2, “Oleic acid derivatives, pharmaceutical composition or food composition comprising said oleic acid derivatives, and their uses” (UNIVERSITÉ DE BOURGOGNE, priority 2018, dated 2024):
Entries after “also recorded” stand apart in the source; their conditions may differ.

Key:
mice = assay: Two-bottle preference test; type: in vivo, mouse; details: for gustatory preference versus control solution (xanthan gum) / concentration preferred (optimal preference) in two-bottle preference test: 12 hours; for gustatory preference versus control solution (xanthan gum): 10 to 100 μM; for concentration preferred (optimal preference) in two-bottle preference test: versus xanthan gum control
Experimental: Eight weeks old, male mice (C57BI/6 black) were purchased from the “Janvier Elevage” (Le Mans) and used for these experiments.
The mice are placed individually in cages in a controlled environment (humidity and constant temperature) and have free access to a standard diet. 6 hours before the tests, the mice are deprived of water.
During the behavioral experiments, the mice were offered two bottles simultaneously for 12 hours (night period).
The mice are subjected to a choice between the “control” solution and the experimental solution (FIG. 4 and FIG. 5). • control solutions contain 0.3% xanthan gum, w/v, (Sigma Life Science, USA) in water to reproduce lipid texture and minimize bias due to differences in appearance between the two bottles; • the experimental solution contains, either the “test compound” according to the invention at a concentration varying from 10 to 100 μM (compound 3a, FIG. 4 or compound 2a, FIG. 5) or only xanthan gum at […] (control test). To avoid the preference for one side, the position of each bottle is changed during each test.
To estimate the consumption of control and experimental solutions, the bottles are weighed before and after each experiment. The mice are allowed to take rest for 48 hours between each experiment.

GPR120 = target: T1, GPR120 (Mus musculus, UniProt Q7TMA4); assay: Ca2+ signaling in mouse taste bud cells in presence or absence of the GPR120 antagonist AH7614; type: cell-based; details: AH7614 20 μM, compound at 50 μM, cells pre-incubated 15 minutes
T1 construct: freshly isolated and primary cultured mice type II taste bud cells (expressing GPR120 and CD36) are used; endogenous in cells; host or cells: primary mouse taste bud cells from fungiform papillae
T1 sequence (Q7TMA4 1-361): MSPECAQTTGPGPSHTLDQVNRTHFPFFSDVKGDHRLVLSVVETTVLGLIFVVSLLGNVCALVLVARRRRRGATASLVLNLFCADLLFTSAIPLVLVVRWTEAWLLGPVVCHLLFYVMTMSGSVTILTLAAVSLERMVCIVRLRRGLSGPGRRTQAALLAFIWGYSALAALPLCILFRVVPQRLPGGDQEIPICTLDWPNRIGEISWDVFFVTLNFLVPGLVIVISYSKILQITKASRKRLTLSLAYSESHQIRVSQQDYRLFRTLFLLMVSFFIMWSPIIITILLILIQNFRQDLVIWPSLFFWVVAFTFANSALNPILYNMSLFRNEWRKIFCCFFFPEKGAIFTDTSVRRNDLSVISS
Experimental: (§1) The mouse taste bud cells were seeded in 24-well plates (with glass bottom), containing poly-D-lysine for better adhesion to the surface. After 24 h, taste cells were incubated for 45 minutes with a fluorescent probe, Fura-2/AM (1 μM) in calcium buffer (110 mM NaCl, 5.4 mM, KCl, 25 mM, NaHCO3, 0.8 mM, MgCl2, 0.4 mM, KH2PO4, 20 mM, Hepes-Na, 0.33 mM, NaHPO4, 1.2 mM, CaCl2), pH 7.4). Then, the cells are washed with phosphate buffer saline (PBS) and taken up in calcium buffer.
Especially, the increases in [Ca^2+]i were measured as follows: the mice taste bud cells were cultured on Willico-Dish wells with a glass bottom and loaded with a fluorescent probe, Fura-2/AM. The changes in intracellular Ca^2+ (F340/F380) were monitored under the Nikon microscope (TiU) by using S-fluor 40× oil immersion objective. The planes were taken at Z intervals of 0.3 μm, and NIS-Elements software was used to deconvolve the images. […] The dual excitation fluorescence imaging system was used for studies of individual cells. The changes in intracellular Ca^2+ were expressed as ΔRatio, which was calculated as the difference between the peak F340/F380 ratio. […] The results were analyzed with the NIS-elements software, the variation in [Ca^2+]i is expressed as A ratio (F340/F380) which was calculated with the difference of spectra at two wavelengths, i.e., 340 nm and 380 nm. […]

mouse taste bud cells = assay: Ca2+ signaling (Fura-2/AM, F340/F380) in mouse taste bud cells; type: cell-based; details: for fat taste receptor(s) through which the compound acts: Ca2+ signaling with SSO or AH7614; for increase in intracellular free calcium concentration [Ca2+]i (F340/F380): mouse taste bud cells loaded with Fura-2/AM
Experimental: The technique to isolate taste bud cells from mouse fungiform papillae has been described in the publication of El-Yassimi A, Hichami A, Besnard P, Khan N A. “Linoleic acid” induces calcium signaling, Src kinase phosphorylation, and neurotransmitter release in mouse CD36-positive gustatory cells”—J. Biol. Chem. 2008 May 9, 283(19), 12949-59.
Briefly, lingual epithelium was separated by enzymatic dissociation which contained the following: elastase and dispase mixture, 2 mg/ml each, in Tyrode's buffer (120 mM NaCl; 5 mM KCl; 10 mM HEPES ((4-(2-hydroxyethyl)-1-piperazineethanesulfonic acid); 1 mM CaCl2); 1 mM MgCl2; 10 mM glucose; 10 mM Na pyruvate, pH 7.4). The taste bud cells were isolated by incubating lingual epithelium in RPMI 1640 medium containing 2 mM EDTA, 1.2 mg/ml elastase, 0.6 mg/ml collagenase (type I), and 0.6 mg/ml trypsin inhibitor at 37° C. for 10 minutes, followed by centrifugation (600 g, 10 minutes). The cell populations, after separation, were suspended in fresh RPMI 1640 medium containing 10% fetal calf serum, 200 U/ml penicillin, and 0.2 mg/ml streptomycin, seeded onto a Poly-D-Lysine-coated dishes, and cultured for 24 hours. At the end of this period, the cells were used for the experiments or stained with trypan blue to assess their viability.
as §1
The changes in intracellular Ca^2+ (F340/F380) were monitored under a Nikon microscope (TiU) by using an S Fluor 40× oil immersion objective.
(§2) Especially, the increases in [Ca^2+]i were measured as follows: the mice taste bud cells were cultured on Willico-Dish wells with a glass bottom and loaded with a fluorescent probe, Fura-2/AM. The changes in intracellular Ca^2+ (F340/F380) were monitored under the Nikon microscope (TiU) by using S-fluor 40× oil immersion objective. The planes were taken at Z intervals of 0.3 μm, and NIS-Elements software was used to deconvolve the images. The microscope was equipped with EM-CCD (Lucas) camera for real time recording of 16-bit digital images. The dual excitation fluorescence imaging system was used for studies of individual cells. The changes in intracellular Ca^2+ were expressed as ΔRatio, which was calculated as the difference between the peak F340/F380 ratio. The data were summarized from the large number of individual cells (20-40 cells in a single run, with 3-9 identical experiments done in at least three cell preparations). The results were analyzed with the NIS-elements software, the variation in [Ca^2+]i is expressed as A ratio (F340/F380) which was calculated with the difference of spectra at two wavelengths, i.e., 340 nm and 380 nm.

CD36 = target: T2, CD36 (Mus musculus, UniProt Q08857); assay: Ca2+ signaling in mouse taste bud cells in presence or absence of the CD36 inhibitor SSO; type: cell-based; details: for action of the CD36 inhibitor SSO on the increase in [Ca2+]i induced by the compound: 20 μM SSO, mouse taste bud cells, Fura-2/AM; for CD36 agonist character: concluded from suppression by SSO
T2 construct: freshly isolated and primary cultured mice type II taste bud cells (expressing GPR120 and CD36) are used; endogenous in cells; host or cells: primary mouse taste bud cells from fungiform papillae
Experimental: as §1, §2
CD36: in order to assess if the oleic acid derivatives according to the invention exert their actions via CD36, the sulfo-N-succinimidyl oleate (SSO) was used. SSO is a CD36 inhibitor/blocker/antagonist.
Experiments were performed in the presence or absence of SSO with respect to calcium signaling to verify whether our analogs act well via this lipid receptor. Especially, for this assay with compounds 3a, 2a and oleic acid (control) were tested.

obese C57BL/6J mice = assay: Diet-induced obesity, body weight on high-fat diet; type: in vivo, mouse; details: for body weight in obese mice: HFD 28 weeks, analogue 75 μM in feeder bottles from 10th week, versus HFD only
Experimental: C57BL/6J male mice, aged between 6 to 10 weeks (16-20 g), were obtained from Janvier Labs (France). They were housed individually in a controlled environment with a 12 h light/dark cycle with food (SAFE, France) and water ad libitum. The palm oil (Huilerie Vigean, France) was the main fat component in high-fat diets. The high-fat diet was prepared weekly and stored at 4° C. until further use. The study was conducted as per Declaration of Helsinki and European ethical guidelines for the care and use of animals for experimentation. All the experimental protocols (protocol number: 16158) were approved by the Regional Ethical Committee of the University of Burgundy (Dijon, France).
The mice were grouped at random (n=10/group) and fed with either of the following diets: standard diet (STD) or high-fat diet (HFD). The body weight, food, and water intake were measured, weekly.
(§3) After 10 weeks of feeding the diets, obese animals were divided into two groups: one groups continued to be fed on the same HFD; however, another group was fed on the same diet and received either NKS-3 or NKS-5) until 28th of weeks of experimentation. At the end, the animals were sacrificed, under a fasting condition, and used for different analysis in blood and different tissues.
In order to elucidate the beneficial effects and especially during obesity, experiments were conducted on obese C57BL/6J mice. […] In order to test the curative/interventional effects on obesity, the animals were divided into two groups: one group that consumed only the high-fat diet (HFD) and the other consuming the same diet and also receiving 3a or 2a in ad libitum baby bottles/feeders. From the 10th week of the diet, we introduced lipid analogues into the bottles at 75 μM that corresponded to their preference in the double choice test. […] In addition, the decrease in obesity was maintained until the 28th week of feeding a HFD (FIGS. 6A and 6B). The study was stopped after the 28th week of the diet because the animals reached the age of 34 weeks and beyond that age, the aging factor may interfere with the growth.

C-reactive protein (CRP) = assay: CRP concentration in sera of obese mice; type: in vivo, mouse; details: obese mice on HFD, versus HFD only
Experimental: as §3
The CRP concentration was determined in sera by an automatic analyzer (Gilford Model 2000 system, a Beckman System T.R).

T2 sequence (Q08857 whole entry): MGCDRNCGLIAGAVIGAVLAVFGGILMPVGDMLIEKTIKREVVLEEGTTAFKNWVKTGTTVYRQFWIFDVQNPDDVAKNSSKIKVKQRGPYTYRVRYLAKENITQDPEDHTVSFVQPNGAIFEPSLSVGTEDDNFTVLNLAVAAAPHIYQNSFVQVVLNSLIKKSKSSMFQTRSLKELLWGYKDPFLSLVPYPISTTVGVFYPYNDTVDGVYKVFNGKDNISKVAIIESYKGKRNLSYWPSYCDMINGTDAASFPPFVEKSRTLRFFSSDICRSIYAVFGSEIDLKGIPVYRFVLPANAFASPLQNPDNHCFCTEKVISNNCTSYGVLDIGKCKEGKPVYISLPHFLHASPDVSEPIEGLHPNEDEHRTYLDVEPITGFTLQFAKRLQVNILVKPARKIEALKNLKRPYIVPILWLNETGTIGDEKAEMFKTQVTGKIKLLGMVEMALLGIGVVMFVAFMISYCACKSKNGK

Row | SMILES | gustatory preference versus control solution (xanthan gum) (mice) | concentration preferred (optimal preference) in two-bottle preference test (mice) | effect of the GPR120 inhibitor AH7614 on the increase in [Ca2+]i induced by the compound (GPR120) | fat taste receptor(s) through which the compound acts (mouse taste bud cells) | increase in intracellular free calcium concentration [Ca2+]i (F340/F380) (mouse taste bud cells) | action of the CD36 inhibitor SSO on the increase in [Ca2+]i induced by the compound (CD36) | CD36 agonist character (CD36) | body weight in obese mice (obese C57BL/6J mice) | anti-obesity effect, comparison of the two analogues (obese C57BL/6J mice; HFD, 75 μM in feeder bottles) | concentration of circulating CRP (C-reactive protein (CRP)) | concentration preferred in two-bottle preference test (mice) | action of the CD36 inhibitor SSO on the increase in [Ca2+]i induced by the compound (CD36; listed as OA)
1 | CCCCCCCC/C=C\CCCCCCCC(=O)OCC1(C)COC1 [Compound 2a, (Z)-(3-methyloxetan-3-yl)methyl octadec-9-enoate] | spontaneous preference | 75 µM | significantly curtailed, but not suppressed | bounds to CD36; also recorded: acts on both receptors CD36 and GPR120 | rapid and significant rise in calcium signaling; also recorded: huge increase | partially blocked; also recorded: curtailed, but not completely suppressed | partial agonist | significant decrease in body weight | more powerful than 3a | significantly decreased | – | –
2 | CCCCCCCC/C=C\CCCCCCCCP(=O)(OCC)OCC [Compound 3a, diethyl (Z)-octadec-9-en-1-yl phosphonate] | spontaneous preference | 75 µM | – | acts both to CD36 and GPR120 | rapid and significant rise in calcium signaling; also recorded: huge increase | completely blocked; also recorded: completely suppressed | complete CD36 agonist | significant decrease in body weight | – | significantly decreased | – | –
3 | CCCCCCCC/C=C\CCCCCCCC(=O)O [oleic acid] | – | – | – | – | rapid and significant rise in calcium signaling | – | – | – | – | – | 7.7 mM | completely blocked; also recorded: partially blocked
